According to ChEMBL document CHEMBL3400134, “Synthesis and biological evaluation of fluconazole analogs with triazole-modified scaffold as potent antifungal agents” (Bioorg Med Chem, 2015):
In brackets after ≈: the same amount, converted by molar mass.

Legend:
Candida albicans [1] = test: Antifungal activity against Candida albicans ATCC 18804 after 24 to 168 hrs by broth microdilution assay; format: functional
Candida albicans [2] = test: Antifungal activity against Candida albicans PTCC 6027 after 24 to 168 hrs by broth microdilution assay; format: functional
Cryptococcus neoformans = test: Antifungal activity against Cryptococcus neoformans IFRC 192 after 24 to 168 hrs by broth microdilution assay; format: functional
Aspergillus fumigatus = test: Antifungal activity against Aspergillus fumigatus ATCC 1028 after 24 to 168 hrs by broth microdilution assay; format: functional
Nakaseomyces glabratus [3] = test: Antifungal activity against Candida glabrata IFRC 339 after 24 to 168 hrs by broth microdilution assay; format: functional
HepG2 = test: Cytotoxicity against human HepG2 cells after 2 days by MTT assay; format: cell-based; settings: HepG2, 48 h
Candida albicans [4] = test: Ratio of fluconazole MIC to compound MIC for Candida albicans ATCC 18804; format: functional
Nakaseomyces glabratus [5] = test: Ratio of fluconazole MIC to compound MIC for Candida glabrata IFRC 339; format: functional
[6] = Stability of the compound in PBS at 0.15 to 6 ug/ml at pH 5.8 to 8 at RT after 2 weeks by UV spectrophotometry; format: physicochemical; settings: buffer, pH 5.8, 336 h
Candida albicans [7] = test: Ratio of fluconazole MIC to compound MIC for Candida albicans PTCC 6027; format: functional
[8] = Stability of the compound in deuterated DMSO at RT after 2 weeks by 1H-NMR spectroscopy; format: physicochemical; settings: 336 h

Compound | MIC (Candida albicans [1]) [µg/mL] | MIC (Candida albicans [2]) [µg/mL] | MIC (Cryptococcus neoformans) [µg/mL] | MIC (Aspergillus fumigatus) [µg/mL] | MIC (Nakaseomyces glabratus [3]) [µg/mL] | IC50 (HepG2) [µg/mL] | Ratio (Candida albicans [4]) | Ratio (Nakaseomyces glabratus [5]) | Stability [6] | Ratio (Candida albicans [7]) | Stability [8]
Oc1ccc(-c2nnc(SCC(O)(Cn3cncn3)c3ccc(Cl)cc3Cl)[nH]2)cc1 (centres undefined) | 16 (≈ 34.5 µM) | 16 (≈ 34.5 µM) | 128 (≈ 276 µM) | > 128 | 128 (≈ 276 µM) | – | – | – | – | – | –
OC(CSc1nnc(-c2cccc(Br)c2)[nH]1)(Cn1cncn1)c1ccc(F)cc1F (centres undefined) | 8 (≈ 16.2 µM) | 8 (≈ 16.2 µM) | > 128 | > 128 | 128 (≈ 259 µM) | – | – | – | – | – | –
OC(Cn1cncn1)(Cn1cncn1)c1ccc(F)cc1F [FLUCONAZOLE] | 2 (≈ 6.53 µM) | 0.25 (≈ 0.816 µM) | 4 (≈ 13.1 µM) | 8 (≈ 26.1 µM) | 64 (≈ 209 µM) | > 250 | – | – | – | – | –
OC(CSc1nnc(-c2ccc(F)cc2)[nH]1)(Cn1cncn1)c1ccc(F)cc1F (centres undefined) | 8 (≈ 18.5 µM) | 4 (≈ 9.25 µM) | > 128 | > 128 | 4 (≈ 9.25 µM) | – | – | – | – | – | –
OC(CSc1nnc(-c2ccc(Cl)cc2)[nH]1)(Cn1cncn1)c1ccc(Cl)cc1Cl (centres undefined) | 0.5 (≈ 1.04 µM) | 0.125 (≈ 0.259 µM) | > 128 | > 128 | 128 (≈ 266 µM) | – | – | – | – | – | –
OC(CSc1nnc(-c2ccncc2)[nH]1)(Cn1cncn1)c1ccc(F)cc1F (centres undefined) | 64 (≈ 154 µM) | 64 (≈ 154 µM) | > 128 | > 128 | 128 (≈ 308 µM) | – | – | – | – | – | –
Nn1c(SCC(O)(Cn2cncn2)c2ccc(Cl)cc2Cl)nnc1-c1ccc(Cl)cc1Cl (centres undefined) | – | 8 (≈ 15.1 µM) | – | – | – | – | – | – | – | – | –
COc1ccc(-c2nnc(SCC(O)(Cn3cncn3)c3ccc(F)cc3F)[nH]2)cc1 (centres undefined) | 2 (≈ 4.5 µM) | 4 (≈ 9 µM) | > 128 | > 128 | 4 (≈ 9 µM) | – | – | – | – | – | –
OC(CSc1nnc(-c2ccc(F)cc2)[nH]1)(Cn1cncn1)c1ccc(Cl)cc1Cl (centres undefined) | 0.5 (≈ 1.07 µM) | 0.125 (≈ 0.269 µM) | > 128 | > 128 | 128 (≈ 275 µM) | – | – | – | – | – | –
OC(CSc1nnc(-c2ccc(Cl)cc2)[nH]1)(Cn1cncn1)c1ccc(F)cc1F (centres undefined) | 0.5 (≈ 1.11 µM) | 1 (≈ 2.23 µM) | > 128 | > 128 | 128 (≈ 285 µM) | – | – | – | – | – | –
OC(CSc1nnc(-c2ccccc2)[nH]1)(Cn1cncn1)c1ccc(F)cc1F (centres undefined) | 0.5 (≈ 1.21 µM) | 8 (≈ 19.3 µM) | > 128 | > 128 | 128 (≈ 309 µM) | – | – | – | – | – | –
OC(CSc1nnc(-c2ccncc2)[nH]1)(Cn1cncn1)c1ccc(Cl)cc1Cl (centres undefined) | 8 (≈ 17.8 µM) | 4 (≈ 8.92 µM) | > 128 | > 128 | 128 (≈ 285 µM) | – | – | – | – | – | –
OC(CSc1nnc(-c2cccc(Br)c2)[nH]1)(Cn1cncn1)c1ccc(Cl)cc1Cl (centres undefined) | 0.25 (≈ 0.475 µM) | 0.06 (≈ 0.114 µM) | 4 (≈ 7.6 µM) | > 128 | 128 (≈ 243 µM) | – | 8 | – | – | – | –
Cc1ccc(-c2nnc(SCC(O)(Cn3cncn3)c3ccc(Cl)cc3Cl)[nH]2)cc1 (centres undefined) | 1 (≈ 2.17 µM) | 0.125 (≈ 0.271 µM) | 128 (≈ 277 µM) | > 128 | 128 (≈ 277 µM) | – | – | – | – | – | –
OC(CSc1nnc(-c2ccccc2)[nH]1)(Cn1cncn1)c1ccc(Cl)cc1Cl (centres undefined) | 4 (≈ 8.94 µM) | 1 (≈ 2.24 µM) | > 128 | > 128 | 128 (≈ 286 µM) | – | – | – | – | – | –
OC(CSc1nnc(-c2ccc(Cl)cc2Cl)[nH]1)(Cn1cncn1)c1ccc(F)cc1F (centres undefined) | 0.5 (≈ 1.03 µM) | 0.03 (≈ 0.0621 µM) | 64 (≈ 132 µM) | > 128 | 0.25 (≈ 0.517 µM) | > 250 | 8 | 4 | Stable | 4 | Stable
Oc1ccc(-c2nnc(SCC(O)(Cn3cncn3)c3ccc(F)cc3F)[nH]2)cc1 (centres undefined) | > 128 | > 128 | > 128 | > 128 | 128 (≈ 297 µM) | – | – | – | – | – | –
OC(CSc1nnc(-c2ccc(Cl)cc2Cl)[nH]1)(Cn1cncn1)c1ccc(Cl)cc1Cl (centres undefined) | 0.5 (≈ 0.969 µM) | < 0.01 | 32 (≈ 62 µM) | > 128 | 0.25 (≈ 0.484 µM) | 97.1 (≈ 188 µM) | 25 | 4 | – | 4 | –
Cc1ccc(-c2nnc(SCC(O)(Cn3cncn3)c3ccc(F)cc3F)[nH]2)cc1 (centres undefined) | 2 (≈ 4.67 µM) | 2 (≈ 4.67 µM) | > 128 | > 128 | 128 (≈ 299 µM) | – | – | – | – | – | –
COc1ccc(-c2nnc(SCC(O)(Cn3cncn3)c3ccc(Cl)cc3Cl)[nH]2)cc1 (centres undefined) | 32 (≈ 67 µM) | > 128 | > 128 | > 128 | 128 (≈ 268 µM) | – | – | – | – | – | –
Nn1c(SCC(O)(Cn2cncn2)c2ccc(F)cc2F)nnc1-c1ccc(Cl)cc1Cl (centres undefined) | – | 16 (≈ 32.1 µM) | – | – | – | – | – | – | – | – | –
